# Reference: PMC5218480 (PLoS ONE, 2017)
# Test system: MV-4-11 cells
# Assay: Gene expression microarray analysis (Affymetrix PrimeView) and GSEA
# Type: cell-based, human
# Set-up: RFU PODN (11730768_x_at) / Fold change /veh PODN (11730768_x_at) / RFU LINC00158 (11744669_a_at) / Fold change /veh LINC00158 (11744669_a_at) / RFU DUSP10 (11751237_a_at) / Fold change /veh DUSP10 (11751237_a_at) / RFU ID3 (11757404_x_at) / Fold change /veh ID3 (11757404_x_at) / RFU PLEKHG5 (11737974_s_at) / Fold change /veh PLEKHG5 (11737974_s_at) / RFU LRRC4B (11730491_at) / Fold change /veh LRRC4B (11730491_at) / RFU GIMAP4 (11747438_a_at) / Fold change /veh GIMAP4 (11747438_a_at) / RFU KRT8 (11758183_x_at) / Fold change /veh KRT8 (11758183_x_at) / RFU CNN1 (11734310_a_at) / Fold change /veh CNN1 (11734310_a_at) / RFU VPS37D (11726825_at) / Fold change /veh VPS37D (11726825_at) / RFU C10orf10 (11716522_x_at) / Fold change /veh C10orf10 (11716522_x_at) / RFU KIR2DL2 /// KIR2DL4 /// KIR2DL5A /// KIR2DL5B /// KIR2DS1 /// KIR2DS2 /// KIR2DS3 /// KIR2DS4 /// KIR3DL3 /// KIR3DL3 /// KIR3DS1 (11738374_at) / Fold change /veh KIR2DL2 /// KIR2DL4 /// KIR2DL5A /// KIR2DL5B /// KIR2DS1 /// KIR2DS2 /// KIR2DS3 /// KIR2DS4 /// KIR3DL3 /// KIR3DL3 /// KIR3DS1 (11738374_at) / RFU C1QL1 (11718748_at) / Fold change /veh C1QL1 (11718748_at) / RFU TMPRSS4 (11747572_a_at) / Fold change /veh TMPRSS4 (11747572_a_at) / RFU HAMP (11756126_x_at) / Fold change /veh HAMP (11756126_x_at) / RFU RNFT2 (11725882_a_at) / Fold change /veh RNFT2 (11725882_a_at) / RFU NR4A2 (11747474_a_at) / Fold change /veh NR4A2 (11747474_a_at) / RFU ABCC12 (11746883_a_at) / Fold change /veh ABCC12 (11746883_a_at) / RFU TMEM136 (11760407_x_at) / Fold change /veh TMEM136 (11760407_x_at) / RFU CLDN22 /// WWC2 (11732394_at) / Fold change /veh CLDN22 /// WWC2 (11732394_at) / RFU HLA-DPB1 (11760878_x_at) / Fold change /veh HLA-DPB1 (11760878_x_at) / RFU SPINT1 (11716480_a_at) / Fold change /veh SPINT1 (11716480_a_at) / RFU GAP43 (11754022_s_at) / Fold change /veh GAP43 (11754022_s_at) / RFU A4GNT (11735810_at) / Fold change /veh A4GNT (11735810_at) / RFU PRB3 (11715151_x_at) / Fold change /veh PRB3 (11715151_x_at) / RFU TUBB4B (11761932_at) / Fold change /veh TUBB4B (11761932_at) / RFU CAPN14 (11732068_a_at) / Fold change /veh CAPN14 (11732068_a_at) / RFU TMCC2 (11721928_a_at) / Fold change /veh TMCC2 (11721928_a_at) / RFU IRGQ (11745062_a_at) / Fold change /veh IRGQ (11745062_a_at) / RFU FAM174B (11720279_a_at) / Fold change /veh FAM174B (11720279_a_at) / RFU TMPRSS4 (11748680_a_at) / Fold change /veh TMPRSS4 (11748680_a_at) / RFU FAM212B (11763350_a_at) / Fold change /veh FAM212B (11763350_a_at) / RFU PLEKHG5 (11743358_a_at) / Fold change /veh PLEKHG5 (11743358_a_at) / RFU ZSCAN30 (11745921_a_at) / Fold change /veh ZSCAN30 (11745921_a_at) / RFU CMKLR1 (11741424_a_at) / Fold change /veh CMKLR1 (11741424_a_at) / RFU LOC101060620 /// MAPK8IP1 (11723275_at) / Fold change /veh LOC101060620 /// MAPK8IP1 (11723275_at) / RFU SPTSSB (11747773_x_at) / Fold change /veh SPTSSB (11747773_x_at) / RFU PRSS12 (11739890_at) / Fold change /veh PRSS12 (11739890_at) / RFU BIN1 (11741810_x_at) / Fold change /veh BIN1 (11741810_x_at) / RFU WNT11 (11732464_a_at) / Fold change /veh WNT11 (11732464_a_at) / RFU C10orf10 (11716521_a_at) / Fold change /veh C10orf10 (11716521_a_at) / RFU C5orf56 (11738089_at) / Fold change /veh C5orf56 (11738089_at) / RFU CYB561 (11721691_x_at) / Fold change /veh CYB561 (11721691_x_at) / RFU ANKRD19P (11752326_a_at) / Fold change /veh ANKRD19P (11752326_a_at) / RFU OR2T12 /// OR2T33 /// OR2T8 (11738714_s_at) / Fold change /veh OR2T12 /// OR2T33 /// OR2T8 (11738714_s_at) / RFU VCAN (11748164_a_at) / Fold change /veh VCAN (11748164_a_at) / RFU JSRP1 (11732532_at) / Fold change /veh JSRP1 (11732532_at) / RFU KRTAP10-11 (11738290_x_at) / Fold change /veh KRTAP10-11 (11738290_x_at) / RFU MYO3A (11730013_a_at) / Fold change /veh MYO3A (11730013_a_at) / RFU EBF3 (11725865_a_at) / Fold change /veh EBF3 (11725865_a_at) / RFU CAMK2N1 (11719241_x_at) / Fold change /veh CAMK2N1 (11719241_x_at) / RFU C5orf56 (11738088_a_at) / Fold change /veh C5orf56 (11738088_a_at) / RFU OLFML3 (11715873_a_at) / Fold change /veh OLFML3 (11715873_a_at) / RFU LOC100653217 /// NTM (11731650_a_at) / Fold change /veh LOC100653217 /// NTM (11731650_a_at) / RFU MAPK11 (11762145_a_at) / Fold change /veh MAPK11 (11762145_a_at) / RFU FIZ1 (11724087_x_at) / Fold change /veh FIZ1 (11724087_x_at) / RFU OASL (11726364_x_at) / Fold change /veh OASL (11726364_x_at) / RFU SOX15 (11748057_x_at) / Fold change /veh SOX15 (11748057_x_at) / RFU CD79A (11719716_a_at) / Fold change /veh CD79A (11719716_a_at) / RFU HIST1H1D (11736915_at) / Fold change /veh HIST1H1D (11736915_at) / RFU CASKIN2 (11723855_a_at) / Fold change /veh CASKIN2 (11723855_a_at) / RFU LOC730098 (11760151_x_at) / Fold change /veh LOC730098 (11760151_x_at) / RFU OR4N2 (11742367_at) / Fold change /veh OR4N2 (11742367_at) / RFU PRRT2 (11749266_a_at) / Fold change /veh PRRT2 (11749266_a_at) / RFU SNX32 (11753110_a_at) / Fold change /veh SNX32 (11753110_a_at) / RFU CDHR5 (11726645_a_at) / Fold change /veh CDHR5 (11726645_a_at) / RFU RCAN1 (11760418_a_at) / Fold change /veh RCAN1 (11760418_a_at) / RFU FAM167A (11723789_a_at) / Fold change /veh FAM167A (11723789_a_at) / RFU FAM26E (11764081_at) / Fold change /veh FAM26E (11764081_at) / RFU ISYNA1 (11749810_s_at) / Fold change /veh ISYNA1 (11749810_s_at) / RFU ACY1 (11761880_at) / Fold change /veh ACY1 (11761880_at) / RFU 11764098_at / Fold change /veh 11764098_at / RFU SAMD14 (11745864_x_at) / Fold change /veh SAMD14 (11745864_x_at) / RFU NPB (11741838_a_at) / Fold change /veh NPB (11741838_a_at) / RFU TMPRSS6 (11731388_a_at) / Fold change /veh TMPRSS6 (11731388_a_at) / RFU KRTAP10-2 (11738614_at) / Fold change /veh KRTAP10-2 (11738614_at) / RFU ARHGAP8 /// PRR5-ARHGAP8 (11727945_x_at) / Fold change /veh ARHGAP8 /// PRR5-ARHGAP8 (11727945_x_at) / RFU KRTAP5-7 /// NADSYN1 (11734609_at) / Fold change /veh KRTAP5-7 /// NADSYN1 (11734609_at) / RFU RASL12 (11751679_a_at) / Fold change /veh RASL12 (11751679_a_at) / RFU CDKN2B (11736163_a_at) / Fold change /veh CDKN2B (11736163_a_at) / RFU PRF1 (11729649_at) / Fold change /veh PRF1 (11729649_at) / RFU, ZNF638 /// ZNF638-IT1 / Fold change vs veh, ZNF638 /// ZNF638-IT1 / RFU, PANK3 / Fold change vs veh, PANK3 / RFU, SH3YL1 / Fold change vs veh, SH3YL1 / RFU, ZEB2 / Fold change vs veh, ZEB2 / RFU, NRIP1 / Fold change vs veh, NRIP1 / RFU, PTTG1IP / Fold change vs veh, PTTG1IP / RFU, CAPN2 / Fold change vs veh, CAPN2 / RFU, MED14 / Fold change vs veh, MED14 / RFU, SNORA58 / Fold change vs veh, SNORA58 / RFU, C1orf63 / Fold change vs veh, C1orf63 / RFU, LRRFIP1 / Fold change vs veh, LRRFIP1 / RFU, NDUFAF7 / Fold change vs veh, NDUFAF7 / RFU, SLC12A2 / Fold change vs veh, SLC12A2 / RFU, IBTK / Fold change vs veh, IBTK / RFU, ESF1 / Fold change vs veh, ESF1 / Fold change vs veh, TMEM50B / RFU, TAOK1 / Fold change vs veh, TAOK1 / RFU, ACBD3 / Fold change vs veh, ACBD3 / RFU, TMA16 / Fold change vs veh, TMA16 / RFU, RWDD3 / Fold change vs veh, RWDD3 / RFU, BCAT1 / Fold change vs veh, BCAT1 / RFU, EDEM3 / Fold change vs veh, EDEM3 / RFU, TMEM33 / Fold change vs veh, TMEM33 / RFU, WDR75 / Fold change vs veh, WDR75 / RFU, AHCTF1 / Fold change vs veh, AHCTF1 / RFU, TFRC / Fold change vs veh, TFRC / RFU, ZDHHC17 / Fold change vs veh, ZDHHC17 / RFU, NOM1 / Fold change vs veh, NOM1 / RFU, ARL8B / Fold change vs veh, ARL8B / RFU, ZBTB11 / Fold change vs veh, ZBTB11 / RFU, TAMM41 / Fold change vs veh, TAMM41 / RFU, KIAA1704 /// LOC100996395 / Fold change vs veh, KIAA1704 /// LOC100996395 / RFU, ING1 / Fold change vs veh, ING1 / RFU, TRMT61B / Fold change vs veh, TRMT61B / RFU, FUBP3 / Fold change vs veh, FUBP3 / RFU, TP53 / Fold change vs veh, TP53 / RFU, TNKS2 / Fold change vs veh, TNKS2 / RFU, ZFP14 / Fold change vs veh, ZFP14 / RFU, ACTR2 / Fold change vs veh, ACTR2 / RFU, PPP3R1 / Fold change vs veh, PPP3R1 / RFU, PIK3R1 / Fold change vs veh, PIK3R1 / RFU, HNRNPA1 / Fold change vs veh, HNRNPA1 / RFU, RNF170 / Fold change vs veh, RNF170 / RFU, ZNF28 / Fold change vs veh, ZNF28 / RFU, RNGTT / Fold change vs veh, RNGTT / RFU, OGT / Fold change vs veh, OGT / RFU, BRD1 / Fold change vs veh, BRD1 / RFU, MARS / Fold change vs veh, MARS / RFU, ZNF655 / Fold change vs veh, ZNF655 / RFU, FAHD1 / Fold change vs veh, FAHD1 / RFU, BDP1 / Fold change vs veh, BDP1 / RFU, LRRCC1 / Fold change vs veh, LRRCC1 / RFU, ARID1A / Fold change vs veh, ARID1A / RFU, ZNF146 / Fold change vs veh, ZNF146 / RFU, ZNF330 / Fold change vs veh, ZNF330 / RFU, GPN3 / Fold change vs veh, GPN3 / RFU, C9orf123 / Fold change vs veh, C9orf123 / RFU, N4BP2L2 / Fold change vs veh, N4BP2L2 / RFU, ARFIP1 / Fold change vs veh, ARFIP1 / RFU, FAM179B / Fold change vs veh, FAM179B / RFU, BCL10 / Fold change vs veh, BCL10 / RFU, UHRF1BP1L / Fold change vs veh, UHRF1BP1L / RFU, BET1 / Fold change vs veh, BET1 / RFU, CNOT2 / Fold change vs veh, CNOT2 / RFU, ZNF268 / Fold change vs veh, ZNF268 / Fold change vs veh, ZNF507 / RFU, DGCR2 / Fold change vs veh, DGCR2 / RFU, WDSUB1 / Fold change vs veh, WDSUB1 / Fold change vs veh, HSP90B1 /// MIR3652 / RFU, ADSS / Fold change vs veh, ADSS / RFU, GK / Fold change vs veh, GK / RFU, ZNF148 / Fold change vs veh, ZNF148 / RFU, TAF9 / Fold change vs veh, TAF9 / RFU, SLC1A5 / Fold change vs veh, SLC1A5 / RFU, SLMO2 / Fold change vs veh, SLMO2 / RFU, ABCC4 / Fold change vs veh, ABCC4 / RFU, LOC101060439 /// RAP1B / Fold change vs veh, LOC101060439 /// RAP1B / RFU, RFX7 / Fold change vs veh, RFX7 / RFU, GTPBP10 / Fold change vs veh, GTPBP10 / RFU, CNEP1R1 / Fold change vs veh, CNEP1R1 / RFU, BIVM-ERCC5 /// ERCC5 / Fold change vs veh, BIVM-ERCC5 /// ERCC5 / RFU, ILF3 / Fold change vs veh, ILF3 / RFU 11762660_at / Fold change /veh 11762660_at / RFU VCAN (11757783_s_at) / Fold change /veh VCAN (11757783_s_at) / RFU DDX43 (11728927_at) / Fold change /veh DDX43 (11728927_at) / RFU KRT8 (11758188_x_at) / Fold change /veh KRT8 (11758188_x_at) / RFU NKD1 (11759106_at) / Fold change /veh NKD1 (11759106_at) / RFU SRD5A1 (11742802_a_at) / Fold change /veh SRD5A1 (11742802_a_at) / RFU TPSAB1 /// TPSB2 (11721975_s_at) / Fold change /veh TPSAB1 /// TPSB2 (11721975_s_at) / RFU GSTM3 (11746129_a_at) / Fold change /veh GSTM3 (11746129_a_at) / RFU IL23R (11737362_x_at) / Fold change /veh IL23R (11737362_x_at) / RFU TMEM51 (11727254_a_at) / Fold change /veh TMEM51 (11727254_a_at) / RFU PIWIL2 (11732686_x_at) / Fold change /veh PIWIL2 (11732686_x_at) / RFU ORM1 (11744905_x_at) / Fold change /veh ORM1 (11744905_x_at) / RFU CCDC152 (11743942_at) / Fold change /veh CCDC152 (11743942_at) / RFU ECM1 (11717891_a_at) / Fold change /veh ECM1 (11717891_a_at) / RFU IL23R (11748794_a_at) / Fold change /veh IL23R (11748794_a_at) / RFU TNFAIP8L3 (11732012_x_at) / Fold change /veh TNFAIP8L3 (11732012_x_at) / RFU MBOAT4 (11741988_at) / Fold change /veh MBOAT4 (11741988_at) / RFU 11764193_at / Fold change /veh 11764193_at / RFU TMEM53 (11763286_at) / Fold change /veh TMEM53 (11763286_at) / RFU MAGEB2 (11727129_at) / Fold change /veh MAGEB2 (11727129_at) / RFU TMEM200A (11744735_a_at) / Fold change /veh TMEM200A (11744735_a_at) / RFU CCDC152 (11751479_a_at) / Fold change /veh CCDC152 (11751479_a_at) / RFU FAM211A (11726209_a_at) / Fold change /veh FAM211A (11726209_a_at) / RFU RGS16 (11746705_a_at) / Fold change /veh RGS16 (11746705_a_at) / RFU VCAN (11755009_s_at) / Fold change /veh VCAN (11755009_s_at) / RFU RHOB (11743442_s_at) / Fold change /veh RHOB (11743442_s_at) / RFU RGS16 (11720943_a_at) / Fold change /veh RGS16 (11720943_a_at) / RFU RGS16 (11720944_at) / Fold change /veh RGS16 (11720944_at) / RFU, VPS4B / Fold change vs veh, VPS4B / RFU, CREB1 / Fold change vs veh, CREB1 / RFU, DNAJC13 / Fold change vs veh, DNAJC13 / RFU, GNAQ / Fold change vs veh, GNAQ / RFU, CDK5R1 / Fold change vs veh, CDK5R1 / RFU, ZRANB3 / Fold change vs veh, ZRANB3 / RFU, CUL4A / Fold change vs veh, CUL4A / RFU, CCNY / Fold change vs veh, CCNY / RFU, UFL1 / Fold change vs veh, UFL1 / RFU, COG3 / Fold change vs veh, COG3 / RFU, DIAPH2 / Fold change vs veh, DIAPH2 / RFU, SKA2 / Fold change vs veh, SKA2 / RFU, AFF3 / Fold change vs veh, AFF3 / RFU, LMF1 / Fold change vs veh, LMF1 / RFU, IPO11 / Fold change vs veh, IPO11 / RFU, DFFB / Fold change vs veh, DFFB / RFU, FOXP1 / Fold change vs veh, FOXP1 / RFU, CARD8 / Fold change vs veh, CARD8 / RFU, STRN3 / Fold change vs veh, STRN3 / RFU, ADK / Fold change vs veh, ADK / RFU, RASSF2 / Fold change vs veh, RASSF2 / RFU, WIPF1 / Fold change vs veh, WIPF1 / RFU, LARP1B / Fold change vs veh, LARP1B / RFU, RASA1 / Fold change vs veh, RASA1 / RFU, RB1 / Fold change vs veh, RB1 / RFU, PPFIA1 / Fold change vs veh, PPFIA1 / RFU, MAT2A / Fold change vs veh, MAT2A / RFU, CCT5 / Fold change vs veh, CCT5 / RFU, WDR92 / Fold change vs veh, WDR92 / RFU, CUX1 / Fold change vs veh, CUX1 / RFU, TTC7A / Fold change vs veh, TTC7A / RFU, TMEM135 / Fold change vs veh, TMEM135 / RFU, DEPTOR / Fold change vs veh, DEPTOR / RFU, CPM / Fold change vs veh, CPM / RFU, DNAJB6 / Fold change vs veh, DNAJB6 / RFU, CACNA2D3 / Fold change vs veh, CACNA2D3 / RFU, DTX4 / Fold change vs veh, DTX4 / RFU, TFCP2 / Fold change vs veh, TFCP2 / RFU, GMCL1 /// GMCL1P1 / Fold change vs veh, GMCL1 /// GMCL1P1 / RFU, AEBP2 / Fold change vs veh, AEBP2 / RFU, SNHG1 /// SNORD22 /// SNORD25 /// SNORD26 /// SNORD27 /// SNORD28 /// SNORD29 /// SNORD31 / Fold change vs veh, SNHG1 /// SNORD22 /// SNORD25 /// SNORD26 /// SNORD27 /// SNORD28 /// SNORD29 /// SNORD31 / Fold change (Aza/veh), C12orf56 (ProbeSet 11735607_a_at) / Fold change (ACY-1035/veh), C12orf56 (ProbeSet 11735607_a_at) / Fold change (Aza/veh), FGFR1OP (ProbeSet 11751329_s_at) / Fold change (ACY-1035/veh), FGFR1OP (ProbeSet 11751329_s_at) / Fold change (Aza/veh), VPS36 (ProbeSet 11739960_a_at) / Fold change (ACY-1035/veh), VPS36 (ProbeSet 11739960_a_at) / RFU SYPL1 (11715823_x_at) / Fold change /veh SYPL1 (11715823_x_at) / RFU IGFBP7 (11715501_s_at) / Fold change /veh IGFBP7 (11715501_s_at) / RFU REEP3 (11722064_at) / Fold change /veh REEP3 (11722064_at) / RFU IGLL1 (11728026_x_at) / Fold change /veh IGLL1 (11728026_x_at): dose or concentration left out as unconfirmed
# Conditions: MV-4-11 cells, 48 hours
compound,measurement,value
Nc1ccc(-c2cccs2)cc1NC(=O)c1ccc2c(c1)cc(C1CC1)n2CCN1CCOCC1 [ACY-1035],RFU SPINT1 (11716480_a_at),24.20 RFU
